Reference: patent publication US20120004235A1, “METHODS TO TREAT CANCER” (Rutgers, The State University of New Jersey, priority 2009, published 2012)
Values joined by “and” are separate entries in the source; they are usually repeats but may differ in a detail not shown here. Equal entries are not always repeated. Structures can show the parent of a compound that is named as a salt. Where two headings read alike, the source gives them in different places.

What was measured:
[1] = tested on: NCI-H460 human non-small cell lung carcinoma xenograft; test: Compound 2 citrate salt vs. NCI-H460 xenograft model (pemetrexed, topotecan, cisplatin controls); settings: for mean tumor volume of the animals not at endpoint: 3 animals
[2] = tested on: HT-29 human colon tumor xenograft; test: Compound 2 citrate salt vs. HT-29 human colon tumor model
[3] = tested on: MDA-MB-231 human breast tumor xenograft; settings: for animals not yet reached the study endpoint of 1500 mm^3: Day 90
[4] = tested on: NCI-H460 human non-small cell lung carcinoma xenograft; test: Comparison dose schedule study in the NCI-H460 xenograft model; format: in vivo, nude (nu/nu) mice
Excerpt: Irinotecan served as the positive control.

[5] = tested on: HCT-116 human colon tumor xenograft; test: Compound 2 citrate salt vs. HCT-116 human colon tumor xenograft model (IV)
[6] = tested on: NCI-H460 human non-small cell lung carcinoma xenograft; test: Compound 2 citrate salt vs. NCI-H460 xenograft model (docetaxel control)
[7] = tested on: Human DLD-1 Colon Tumor Xenograft Model; test: Test D xenograft, Compound 2 free base; format: in vivo, nu/nu mice; settings: 60 mg/kg/day IV
[8] = tested on: Human 786-0 Renal Cell Tumor Xenograft Model; test: Test D xenograft, Compound 2 free base; format: in vivo, nu/nu mice; settings: 60 mg/kg/day IV, q4d×3
[9] = tested on: Human HCT-15 Colon Tumor Xenograft Model; test: Test D xenograft, Compound 2 free base; format: in vivo, nu/nu mice; settings: 60 mg/kg/day IV, q4d×3
[10] = tested on: HCT-116 human colon tumor xenograft; test: Compound 2 after oral administration vs. the HCT-116 xenograft model; settings: 60 mg/kg/day IP, q4d×3
[11] = tested on: Human MDA-MB-231 Breast Tumor Xenograft Model; test: Test D xenograft, Compound 2 free base; settings: qod × 3
[12] = tested on: Human H1299 Lung Tumor Xenograft Model; test: Test D xenograft, Compound 2 free base; settings: qod × 3
[13] = tested on: Human H460 Non-Small Cell Lung Carcinoma Tumor Xenograft Model; test: Test D xenograft, Compound 2 free base; format: in vivo, nu/nu mice; settings: qod × 3
Procedure: (§1) The anti-tumor activity of Compound 2 (free base) was evaluated against a variety of human tumor xenograft models. A summary of the studies, including tumor type, dosing and administration, growth inhibition, and major findings is presented below.

[14] = tested on: Human NCI-H292 Lung Tumor Xenograft Model; test: Test D xenograft, Compound 2 free base; settings: qod × 3
[15] = tested on: Human LOX-IMVI Melanoma Tumor Xenograft Model; test: Test D xenograft, Compound 2 free base; settings: 90 mg/kg/day IP, qd × 5
[16] = tested on: Human SK-MEL-3 Melanoma Tumor Xenograft Model; test: Test D xenograft, Compound 2 free base; format: in vivo, nu/nu mice; settings: 90 mg/kg/day IP, qd × 5
Procedure: as §1

[17] = 2.72 mg/kg/day IP, qod×3 weekly for 2 cycles
[18] = 2.72 mg/kg/day IP, qod×3 weekly for 2 cycles, Day 53
[19] = 4.08 mg/kg/day IP, qod×3 weekly for 2 cycles
[20] = 2.04 mg/kg/day IP, qod×3 weekly for 2 cycles
[21] = 1.36 mg/kg/day IV, qod×3 weekly for 2 cycles
[22] = 2.72 mg/kg/day IV, qod×3 weekly for 2 cycles
[23] = all dosages (0.68, 1.36, 2.72 mg/kg IP, qod×3 weekly for 2 cycles)
[24] = 60 mg/kg/day IP, qod×3 weekly for 2 cycles

CNCCn1c(=O)c2cc(OC)c(OC)cc2c2cnc3cc4c(cc3c21)OCO4 [Compound 2 citrate salt, 8,9-dimethoxy-2,3-methylenedioxy-5-[2-(N-methylamino)ethyl]-5H-dibenzo[c,h]1,6-naphthyridin-6-one]
TGI (T/C) ([1]; 2.59 mg/kg/day IP, qd×5): 30.5% | toxic deaths [1, 17]: no toxic deaths | animals not yet reached the study endpoint of 2000 mm^3 [1, 18]: 3 of 8 | weight loss recovered at study termination [1, 18]: approximately 12% | mean tumor volume of the animals not at endpoint [1, 18]: 1583 mm^3 | maximum weight loss ([1]; 2.72 mg/kg/day IP, qod×3 weekly for 2 cycles, on Day 22): 22.3% | TGI (T/C) ([1]; 3.27 mg/kg/day IP, qd×5): 33.5% | animals not yet reached the study endpoint of 2000 mm^3 ([1]; 3.27 mg/kg/day IP, qd×5): 3 of 8 | mean tumor volume of the animals not at endpoint ([1]; 3.27 mg/kg/day IP, qd×5): 1722 mm^3 | TGI (T/C) [2, 17]: 50.1% | TGD ([2]; 2.72 mg/kg/day IP, qod×3 weekly for 2 cycles, vs untreated control): 16 days | ILS [2, 19]: 1.7 fold | TGD (T-C) [2, 19]: 31 days | TGI (T/C) [2, 19]: 18.9% | tolerability ([2]; dose levels tested (1.36, 2.72, 4.08 mg/kg/day IP, qod×3 weekly for 2 cycles)): well tolerated | TGD [3, 20]: 52 days | animals not yet reached the study endpoint of 1500 mm^3 [3, 20]: 2 of 8 | TGD [3, 17]: > 58 days | animals not yet reached the study endpoint of 1500 mm^3 [3, 17]: 4 of 8 | ILS ([3]; 3.27 mg/kg/day IP, qd×5): > 2.0 fold | TGD (T-C) ([3]; 3.27 mg/kg/day IP, qd×5): 42 days | TGI (T/C) ([3]; 3.27 mg/kg/day IP, qd×5): 9.5% | maximum weight loss ([3]; 3.27 mg/kg/day IP, qd×5): 15.7% | mice remaining on Day 90 ([3]; 3.27 mg/kg/day IP, qd×5): one | maximum weight loss ([4]; 4.90 mg/kg/day IP, q4d×5, on Day 34): 24.2% | ILS [5, 21]: 1.6 fold | TGD (T-C) [5, 21]: 18 days | TGI (T/C) [5, 21]: 45.0% | ILS [5, 22]: > 2.2 fold | TGD [5, 22]: > 34 days | mice survivors at conclusion of the study ([5]; 2.72 mg/kg/day IV, qod×3 weekly for 2 cycles, Day 62): 50% | weight loss ([5]; 5.44 mg/kg/day IV, qod×3 weekly for 2 cycles): > 30% | toxic deaths ([5]; 5.44 mg/kg/day IV, qod×3 weekly for 2 cycles, groups of 8): ⅝ | ILS [6, 17]: 2.0 fold | TGD (T-C) [6, 17]: 24 days | TGI (T/C) [6, 17]: 35.1% | body weight loss [6, 23]: < 20% | toxic deaths [6, 23]: no toxic deaths

CCc1c2c(nc3ccc(OC(=O)N4CCC(N5CCCCC5)CC4)cc13)-c1cc3c(c(=O)n1C2)COC(=O)[C@]3(O)CC [Irinotecan, reference compound]
Tumor Growth Delay T-C ([7]; q4d×3): 5 days | Increase in Life Span (ILS) ([7]; q4d × 3, listed as CPT-11): 1.1x | Increase in Life Span (ILS) [8]: 1.4x | Tumor Growth Delay T-C [8]: 17 days | TGD ([2]; 60 mg/kg/day IV, q4d×3): no TGD was observed | TGI (T/C) ([2]; 60 mg/kg/day IV, q4d×3): 52.7% | tolerability ([2]; 60 mg/kg/day IV, q4d×3): well tolerated | ILS [3, 24]: > 2.0 fold | TGD (T-C) [3, 24]: 38 days | TGI (T/C) [3, 24]: 10% | body weight loss [3, 24]: 20% | ILS ([4]; 60 mg/kg/day IP, q4d×3): 1.7 fold | TGD (T-C) ([4]; 60 mg/kg/day IP, q4d×3): 14 days | ILS [4, 24]: 2.5 fold | TGD (T-C) [4, 24]: 29 days | TGI (T/C) [4, 24]: 19.0% | ILS ([5]; 60 mg/kg/day IV, q4d×3): 1.5 fold | TGD (T-C) ([5]; 60 mg/kg/day IV, q4d×3): 14 days | tolerability ([5]; 60 mg/kg/day IV, q4d×3): tolerated well | Increase in Life Span (ILS) [9]: 1.7x | Tumor Growth Delay T-C [9]: 28 days | ILS [10]: > 1.5 fold | TGD (T-C) [10]: > 18 days | body weight loss [10]: < 10% | animals remaining at study termination ([10]; Day 53): 8 of 9

CC(=O)O[C@@]12CO[C@@H]1C[C@H](O)[C@@]1(C)C(=O)[C@H](O)C3=C(C)[C@@H](OC(=O)[C@H](O)[C@@H](NC(=O)OC(C)(C)C)c4ccccc4)C[C@@](O)([C@@H](OC(=O)c4ccccc4)[C@H]21)C3(C)C [Docetaxel, reference compound]
Increase in Life Span (ILS) ([11]; 16 mg/kg/day IV): >2.3x | Tumor Growth Delay T-C ([11]; 16 mg/kg/day IV): >47 days | Tumor Growth Inhibition T/C (tumor volume) ([11]; 16 mg/kg/day IV): 4.8% | Increase in Life Span (ILS) ([11]; 20 mg/kg/day IV): >2.3x | Tumor Growth Delay T-C ([11]; 20 mg/kg/day IV): >47 days | Tumor Growth Inhibition T/C (tumor volume) ([11]; 20 mg/kg/day IV): 4.0% | Increase in Life Span (ILS) ([12]; 16 mg/kg/day IV): 1.4x | Tumor Growth Delay T-C ([12]; 16 mg/kg/day IV): 11 days | Tumor Growth Inhibition T/C (tumor volume) ([12]; 16 mg/kg/day IV): 35.2% | Increase in Life Span (ILS) ([12]; 20 mg/kg/day IV): 1.6x | Tumor Growth Delay T-C ([12]; 20 mg/kg/day IV): 17 days | Tumor Growth Inhibition T/C (tumor volume) ([12]; 20 mg/kg/day IV): 20.7% | Increase in Life Span (ILS) ([13]; 12 mg/kg/day IV): 1.4x | Tumor Growth Delay T-C ([13]; 12 mg/kg/day IV): 11 days | Tumor Growth Inhibition T/C (tumor volume) ([13]; 12 mg/kg/day IV): 49.8% | Increase in Life Span (ILS) ([14]; 16 mg/kg/day IV): 2.1x | Tumor Growth Delay T-C ([14]; 16 mg/kg/day IV): 39 days | Tumor Growth Inhibition T/C (tumor volume) ([14]; 16 mg/kg/day IV): 8.7% | Increase in Life Span (ILS) ([14]; 20 mg/kg/day IV): 2.1x | Tumor Growth Delay T-C ([14]; 20 mg/kg/day IV): 39 days | Tumor Growth Inhibition T/C (tumor volume) ([14]; 20 mg/kg/day IV): 6.0% | TGD (T-C) ([6]; 20 mg/kg/day IV, qod × 3): 21 days | TGI (T/C) ([6]; 20 mg/kg/day IV, qod × 3): 22.7% | time to recover the weight loss ([6]; 20 mg/kg/day IV, qod × 3): ≤ 13 days | toxic deaths ([6]; 20 mg/kg/day IV, qod × 3): no toxic deaths | maximum weight loss ([6]; 20 mg/kg/day IV, qod×3, on Day 25): 26.4%

N.N.[Cl][Pt][Cl] [Cisplatin]
antitumor activity ([1]; 0.75 and 1.5 mg/kg/day IP, qd×5): only active at the high dose | antitumor activity (TGI and TGD evaluation points) ([1]; high dose (1.5 mg/kg/day IP, qd×5)): low activity at both evaluation points | Increase in Life Span (ILS) ([13]; 3.3 mg/kg/day IP): 1.4x | Tumor Growth Delay T-C ([13]; 3.3 mg/kg/day IP): 11 days | Tumor Growth Inhibition T/C (tumor volume) ([13]; 3.3 mg/kg/day IP): 44.5%

CN(C)/N=N/c1[nH]cnc1C(N)=O [Dacarbazine, reference compound]
Increase in Life Span (ILS) [15]: 2.0x | Tumor Growth Delay T-C [15]: 28 days and 14 days | Tumor Growth Inhibition T/C (tumor volume) [15]: 80.6% | Increase in Life Span (ILS) [16]: 1.0x | Tumor Growth Delay T-C [16]: 0 days | Tumor Growth Inhibition T/C (tumor volume) [16]: 88.5%

COc1cc2c(cc1OC)-c1cnc3cc4c(cc3c1N(C(C)CN(C)C)C2)OCO4 (stereo not shown) [Example 18, 8,9-Dimethoxy-2,3-methylenedioxy-5-[2-(N,N-dimethylamino)-1-methylethyl]-5,6-dihydro-dibenzo[c,h]1,6-naphthyridine]
melting point: 153 to 154 °C

COc1cc2c(=O)n(CCN3CCCC3)c3c4cc5c(cc4ncc3c2cc1OC)OCO5 [Example 9, 8,9-Dimethoxy-2,3-methylenedioxy-5-[2-(pyrrolidin-1-yl)ethyl]-5H-dibenzo[c,h]1,6-naphthyridin-6-one]
melting point: 255 to 257 °C (dec.)

COc1cc2c(=O)n(CCN3CCCCC3)c3c4cc5c(cc4nnc3c2cc1OC)OCO5 [Example 6, 2,3-Dimethoxy-8,9-methylenedioxy-11-[2-(piperidin-1-yl)ethyl]-11H-5,6,11-triaza-chrysen-12-one]
melting point: 294 to 295 °C
